Measurements taken from EP3354264A1, “PROPHYLAXIS AND TREATMENT OF NEISSERIA GONORRHOEAE EYE INFECTION” (Kingston University Higher Education Corporation, priority 2017, dated 2018).
Converted amounts (≈) assume the structure as drawn. Read-outs that look alike come from different tables or passages of the source.

Experiments:
[1] = system: Neisseria gonorrhoeae strain NCCP11945; assay: Measurement of bactericidal action (log reduction); format: cell-based; settings: for log reduction at 1000 µM: Neisseria gonorrhoeae
Procedure: (§1) The well characterised N. gonorrhoeae strain NCCP11945 (Chung GT et al. (2008) Complete genome sequence of Neisseria gonorrhoeae NCCP11945. Journal of Bacteriology 190: 6035-6036) was used in the screening stage of this experiment. Eight isolates that were obtained from Public Health England from various European locations were used in the log reduction assays. All isolates were first cultured for 24 hours prior to testing by plating on GC solid medium (Oxoid Limited, Hampshire, UK) with Kellogg supplements and incubating at 37 °C, 5% CO2 (Kellogg DS, Jr., et al., (1963), J Bacteriol 85: 1274-1279).
(§2) A full list of all the organic acids tested in this study is in Table 1. The tested compounds include saturated and unsaturated fatty acids, monoglycerides, dicarboxylic acids, and fatty acid sodium salts. All compounds investigated were resuspended at a concentration of 100 mM in ethanol unless stated. All chemicals were obtained from Sigma-Aldrich (Poole, Dorset, UK).
(§3) Log reductions were done using the same method as in Bergsson et al., (1999), Antimicrob Agents Chemother 43: 2790-2792. Briefly, cells were suspended in GC broth (18 g/L GC Base (Oxiod, Limited) with added defined supplements) to an optical density of 0.3 at 520 nm which is approximately equivalent to 107 - 108 cells per millilitre (Macfarlane DE et al. (1980) Improved media for the culture of Neisseria gonorrhoeae. J Med Microbiol 13: 597-607). Five hundred microliters of the suspension was then added to 5 µl of the 100 mM stocks to give a final concentration of 1 mM. A negative control was also done to calculate the reduction in bacterial titre by adding 500 µl to 5 µl ethanol. The tubes were then mixed at room temperature for two minutes and immediately diluted in a 10 fold dilution series down to 10-4. The dilutions were plated by spreading 10 µl on a quarter of a plate and 100 µl of the neat solution was also plated. Plates were incubated at 37 °C for 48 hours. All samples were plated in duplicate. A reduction in viable cell count by more than 4 log10 was deemed to be bactericidal and was selected for further investigation. Bactericidal compounds were then tested at concentrations of 0.75, 0.5, and 0.25 mM (0.125 mM was also used in some potent compounds) to find the minimum bactericidal concentration. Additional testing at lower concentrations was also done on the eight clinical isolates of European origin.

[2] = system: Neisseria gonorrhoeae strain NCCP11945; assay: Growth inhibition screen of organic acids; format: cell-based; settings: strain NCCP11945, in vitro, 1 mM
Procedure: as §1, §2
Other organic acids were also active at this concentration, as noted in Table 1.

[3] = in vitro; format: cell-based, bovine; settings: red blood cells, bovine RBCs, shaken 1 hour at room temperature
Procedure: (§4) Whole bovine blood was obtained from a local slaughter house (ABP, Guildford, Surrey, UK), adding 90 ml blood to 10 ml of 110 mM tri-sodium citrate anticoagulant. RBCs were isolated the same day. The RBCs were washed by three repeats of centrifugation (1,500 x g for 10 minutes) and resuspension in PBSG. Testing was done following European Union Reference Laboratory for alternatives to animal testing (EURL-ECVAM) guidelines (Lewis RW (2010) DB-ALM Protocol No. 99: Red blood cell (RBC) Test System. EURL ECVAM). The organic acids were made up in DMSO and diluted to a DMSO concentration maximum of 10 % (v/v). Samples were shaken at room temperature for 1 hour and then centrifuged at 10,000 rpm for 2 minutes. An aliquot of 750 µl of the supernatant was taken and absorbance at […] tested.

[4] = system: RBCs; assay: in vitro; format: cell-based, bovine
Procedure: as §4

[5] = system: Neisseria meningitidis; settings: at the concentration used for the antigonococcal ocular formulation; cited from earlier work
[6] = system: N. gonorrhoeae strain NCCP11945; assay: Cell culture infection model (primary cornea epithelial cells); format: cell-based; settings: 1 mM, added 90 minutes after infection; Figure 10
Procedure: Primary cornea epithelial cells were obtained from Life Technologies (Paisley, Glasgow, UK) and grown in Keratinocyte serum free medium (Life Technologies), at 37 °C with 5 % CO2 until 80 % confluent. The cells were then trypsin treated, washed, added to 24 welled plates and incubated for a further 24 hours. The medium was replaced and a fresh P+, Opa+ cells N. gonorrhoeae strain NCCP11945 suspension (approximately 10^7 CFU/ml) was added to the cells to get a multiplicity of infection of 10. All samples were done in duplicate. Monocaprin (1 mM, 0.5 mM, 0.25 mM, and 0.125 mM) was either added directly after the bacteria or after 90 minutes. […] The total time of the infection was three hours. The cells were washed five times with 1 ml PBS for each well. The wells were treated with warmed 1 % saponin in PBS and incubated for 10 minutes at 37 °C. After this, 900 µl GC broth was added and log reductions calculated as above. The CFUs of the drug exposed wells were compared to the CFU counts of the Infection controls to estimate the log reduction caused by the action of the monocaprin. Comparisons of the log reductions at different drug administration times at given concentrations was analysed in an unpaired t test using GraphPad Prism (version 6.01).

[7] = system: Neisseria gonorrhoeae strain NCCP11945; assay: Log reduction in artificial tear fluid; format: cell-based; settings: two minute exposure
Procedure: Artificial tear fluid was made as in Mirejovsky et al., Optometry and Vision Science, (1991), 68: 858-864. […] Neisseria gonorrhoeae strain NCCP11945 was used in these experiments. As the previous log reductions, […] were suspended in GC broth. The cell suspension was centrifuged to remove the culture medium and the bacteria resuspended in the tear fluid. This was then added to the concentrated organic acid candidates. The cells were then counted again after two minute exposure to estimate any reduction due to the exposure to the fatty acid.
In a first experiment, the artificial tear fluid formulation includes calcium chloride to mimic the calcium in natural tears. As shown by the results in Figure 8, the anti-gonococcal properties of myristoleic acid (C14:1cΔ9), palmitoleic acid (C16:1cΔ9), linolenic acid (C18:3cΔ9,12,15), and monocaprin(C10) are retained in the artificial tear fluid formulation containing calcium chloride.
In a second experiment, calcium chloride was omitted from the artificial tear fluid formulation. The results in Figure 9 indicate that the anti-gonococcal properties of lauric acid (C12:0), tridecanoic acid (C13:0), and sodium dodecanoate were retained in the artificial tear fluid formulation without.

[8] = system: Pseudomonas aeruginosa; settings: at the concentration used for the antigonococcal ocular formulation; cited from earlier work
[9] = system: Staphylococcus aureus; settings: at the concentration used for the antigonococcal ocular formulation; cited from earlier work
[10] = system: panel of nine N. gonorrhoeae isolates (strain NCCP11945 and eight isolates from Public Health England); assay: Minimum bactericidal concentration by log reduction, panel of isolates; format: cell-based; settings: Neisseria gonorrhoeae, 2 min, read-out: Minimum bactericidal concentration
Procedure: as §1, §3
As shown by the results in Table 3 which presents data on the log reductions of bacterial cell counts, against a panel of nine N. gonorrhoeae isolates (strain NCCP11945 and eight isolates from Public Health England), myristoleic acid (C14:1cΔ9), palmitoleic acid (C16:1cΔ9), linolenic acid (C18:3cΔ9,12,15), and monocaprin (C10) have a minimal bactericidal concentration, defined as the lowest concentration tested to give an average 4 log10 reduction in bacterial count after a two minute exposure, of 0.5 mM. Against a panel of nine N. gonorrhoeae isolates, lauric acid (C12:0), tridecanoic acid (C13:0), and sodium dodecanoate have a minimal bactericidal concentration of 0.75 mM.

[11] = system: Streptococcus pneumoniae; settings: at the concentration used for the antigonococcal ocular formulation; cited from earlier work
[12] = system: Chorioallantoic Membrane; settings: organic acids 1 mg/ml, sodium hydroxide 0.1M; for Total Score: number
Procedure: The HET-CAM was performed according to Alany et al., (2006), J Control Release 111: 145-152. Fertilised white leghorn eggs were purchased from Henry Stewart & Co. Ltd (Fakenham, Norfolk, UK) and delivered to Kingston University. All eggs were checked for damage and incubated at 37°C with 60-70 % relative humidity. At day 4 the eggs were removed from their shells and placed in incubation chambers. At day 9, the CAMs were tested. This was done by applying 200 µl of the testing material and recording results at 30, 120, and 300 seconds. At each of these time-points the effect of the substance on the CAM was evaluated by assessing them against the scoring system (Vanerp YHM, et al., (1990), Toxicology in Vitro 4: 267-269).

[13] = system: Bovine eyes; settings: test compounds 1 mM in saline, controls as labelled, exposure 30 seconds
Procedure: Bovine eyes were collected from a local slaughter house (ABP, Guildford, Surrey, UK) and were transported in cold saline for testing at the laboratory. Each eye was first examined for signs of damage before use. The test was conducted according to Abdelkader et al., (2012), Int J Pharm 432: 1-10. The exposure time of the test substances was 30 seconds. The selected bactericidal compounds were tested at a concentration of 1 mM in saline. Overall, the concentration of ethanol carry-over from the stock of the organic acids was therefore 1 %. […] The test area of the cornea was then washed with 10 ml saline.
Corneal damage to the test area was assessed by fluorescein staining and examined under a cobalt blue filter. […] Each of the seven candidates were tested in triplicate, each test was performed on a separate day from a different batch of eye balls. Corneal histology was done as Abdelkader et al., (2012), Int J Pharm 432: 1-10 by evaluating the damage to the epithelial layer and stroma of the cornea after Haematoxylin and Eosin staining.

[14] = 2 min, strain NCCP11945, 1 mM, 2 minutes, read-out: Log reduction of Neisseria gonorrhoeae
[15] = strain NCCP11945, 1 mM, 2 minutes
[16] = at their minimum bactericidal concentration
[17] = artificial tear fluid containing calcium chloride, Figure 8
[18] = lowest concentration tested giving an average 4 log10 reduction after two minute exposure, nine isolates
[19] = artificial tear fluid without calcium chloride, Figure 9

| SMILES | HC50 at 1 h ([3]; read-out: H50) | HC50 at 1 h ([3]; read-out: H50 (mg/L)) | log reduction at 1000 µM [1, 14] | Log reduction of Neisseria gonorrhoeae [1, 15] | Inhibits growth of Neisseria gonorrhoeae [2] | RBC lysis assay prediction of irritation [4, 16] | anti-gonococcal properties in artificial tear fluid [7, 17] | MBC [10, 18] | anti-gonococcal properties in artificial tear fluid [7, 19] | Total Score [12] | further results |
| --- | --- | --- | --- | --- | --- | --- | --- | --- | --- | --- | --- |
| CCCCCCCCCC(=O)OCC(O)CO (stereo not drawn) [Monocaprin C10, Monocaprin] | 1.6 to 2.4 mM | 400 to 600 mg/L | > 6 | able to cause a log reduction | Yes | not irritating | retained | 500 µM (≈ 123 µg/mL) | – | – | Inhibits growth of Neisseria gonorrhoeae ([2]; listed as monocaprin): able to inhibit growth; bactericidal to Neisseria meningitidis [5]: bactericidal; kill of Neisseria gonorrhoeae that has infected human epithelial cells [6]: able to kill; bactericidal to Pseudomonas aeruginosa [8]: bactericidal; bactericidal to Staphylococcus aureus [9]: bactericidal; bactericidal to Streptococcus pneumoniae [11]: bactericidal |
| CCCCCCCCCCCC(=O)O [Lauric acid 12:0, dodecanoic acid] | 1 to 2 mM | 200 to 400 mg/L | – | able to cause a log reduction | Yes | not irritating | – | – | retained | 0 | log reduction at 1000 µM ([1]; NCCP11945, 2 min, read-out: Log reduction of Neisseria gonorrhoeae, strain NCCP11945, 1 mM, 2 minutes): > 6; Inhibits growth of Neisseria gonorrhoeae ([2]; listed as lauric acid): able to inhibit growth; Total Score (irritation grade in words) ([12]; listed as Lauric acid): None; BCOP classification ([13]; listed as Lauric acid): Non-irritant; BCOP classification ([13]; listed as lauric acid): will not cause irritation; MBC [10]: 750 µM (≈ 150 µg/mL) |
| CC(C)=O [Acetone, reference compound] | – | – | – | – | – | – | – | – | – | 14 | Total Score (irritation grade in words) [12]: Severe; BCOP classification [13]: Strong irritant |

Continued, in another order:

| HC50 at 1 h ([3]; read-out: H50) | HC50 at 1 h ([3]; read-out: H50 (mg/L)) | SMILES | log reduction at 1000 µM [1, 14] | Log reduction of Neisseria gonorrhoeae [1, 15] | Inhibits growth of Neisseria gonorrhoeae [2] | RBC lysis assay prediction of irritation [4, 16] | anti-gonococcal properties in artificial tear fluid [7, 17] | MBC [10, 18] | anti-gonococcal properties in artificial tear fluid [7, 19] | Total Score [12] | further results |
| --- | --- | --- | --- | --- | --- | --- | --- | --- | --- | --- | --- |
| > 4.67 mM | > 1000 mg/L | CCCCCCCCCCCCC(=O)O [Tridecanoic acid 13:0, Tridecanoic acid] | > 6 | able to cause a log reduction | Yes | – | – | 750 µM (≈ 161 µg/mL) | retained | – | Inhibits growth of Neisseria gonorrhoeae ([2]; listed as tridecanoic acid): able to inhibit growth; RBC lysis assay prediction of irritation [4]: not irritating |
| 2.6 to 3.5 mM | 600 to 800 mg/L | CCCC/C=C\CCCCCCCC(=O)O [Myristoleic acid 14:1 cΔ9, (Z)-tetradec-9-enoic acid] | > 6 | able to cause a log reduction | Yes | not irritating | retained | 500 µM (≈ 113 µg/mL) | – | – | Inhibits growth of Neisseria gonorrhoeae ([2]; listed as myristoleic acid): able to inhibit growth |
